Measurements taken from patent publication US20190054047A1, “TREATMENT OF MALIGNANT ADRENOCORTICAL TUMOR WITH NICLOSAMIDE AND OTHER COMPOUNDS” (The U.S.A., as represented by the Secretary, Department of …, priority 2016, published 2019).

Columns and labels:
NCI-H295R cells = test: Proliferation with niclosamide, mitotane or the combination (CyQuant, Chou-Talalay); assay type: cell-based; details: niclosamide 0.05-0.2 μM or mitotane 0.5-2 μM alone
Method: This example describes a method used to evaluate proliferation of H2965R adrenocortical carcinoma cells in the presence of (1) niclosamide alone (at 0.05 μM, 0.075 μM, 0.1 μM, 0.15 μM, or 0.2 μM), (2) mitotane alone (at 0.5 μM, 0.75 μM, 1 μM, 1.5 μM, or 2 μM), or (3) a combination of both niclosamide and mitotane.
NCI-H295R cells were cultured in Dulbecco modified Eagle medium (DMEM) supplemented with 2.5% NuSerum (BD Biosciences, San Jose, Calif.) and 0.1% ITS premix (BD Biosciences, San Jose, Calif.). Cells were maintained in 5% CO2 atmosphere at 37° C. 3×10^3 cells were plated in 96-well plates. […] Cell count was determined using the CyQuant kit (Life technologies, Grand Island, N.Y.) according to the manufacturer's instructions, and absorbance (cell number) was measured using a SpectraMax M5 microplate reader (Molecular Devices, Sunnyvale, Calif., ex485/em538). Assays were performed in quadruplicate and the experiments were repeated three times.
Statistical analysis was performed using GraphPad Prism 6 software (GraphPad Software, La Jolla, Calif.). Data was analyzed using a two-tailed Mann-Whitney test. Statistical significance was defined as a p-value of less than 0.05. Data are presented as mean±standard deviation (SD). […] Defined as a CI index of <1=synergistic, 1=additive, and >1 antagonistic.

AKT pathway = AKT pathway inhibition (FIGS. 6A and 6B); assay type: cell-based; details: BD140A and H295R cells
NCI-H295R [1] = test: Caspase 3/7 activity assay (Caspase-Glo 3/7); assay type: cell-based; details: 48 hours
Method: (§1) Cells were plated in 96-well plates and treated with niclosamide or the vehicle. Caspase 3/7 activity was measured using the Caspase-Glo 3/7 assay (Promega, Madison, Wis.), according to manufacturer's instructions.

SW-13 [2] = test: Caspase 3/7 activity assay (Caspase-Glo 3/7); assay type: cell-based; details: SW-13, 96 hours
Method: as §1

BD140A cells [3] = test: Caspase 3/7 activity assay (Caspase-Glo 3/7); assay type: cell-based
Method: as §1

all three ACC cell lines = test: Cell cycle analysis (propidium iodide flow cytometry); assay type: cell-based; details: 48 hours, more cells in G1, fewer in S phase
Method: Cells plated in six-well plates were treated with niclosamide or the vehicle. At 48 hours, cells were fixed for 30 minutes in 70% ethanol at 4° C., and stained with 50 μg/mL of propidium iodide containing […] of ribonuclease A. Flow cytometry was performed on a Canto I flow cytometer (Becton-Dickinson, Franklin Lakes, N.J.) using CellQuest software (BD Biosciences, San Jose, Calif.). Data was generated for at least 20,000 events per sample and analyzed using Modfit software (Verity Software House, Inc., Topsham, Me.).

vimentin = test: Western blot analysis of EMT mediators; assay type: cell-based; details: 48 hours of treatment
Method: (§2) The following antibodies were used: anti-beta catenin (1:1,000) from R&D Systems (Minneapolis, Minn.); anti-GAPDH (1:3,000) from Santa Cruz Biotechnology (Dallas, Tex.); anti-N-cadherin (1:4,000) from EMD Millipore (Billerica, Mass.); and anti-vimentin (1:5,000) from Cell Signaling Technology (Boston, Mass.). Niclosamide (2′,5-dichloro-4′-nitrosalicylanilide) was purchased from Sigma-Aldrich (St. Louis, Mo.) and dissolved in DMSO for in vitro studies.
(§3) Cell lysates were analyzed by SDS-PAGE and transferred to a PVDF membrane. The membranes were incubated with the appropriate primary antibodies overnight at 4° C., followed by horseradish peroxidase conjugated IgG (anti-rabbit 1:3,000, Cell Signaling Technology; anti-mouse 1:3,000, Santa Cruz Biotechnology; anti-goat 1:2,000, R&D Systems, Inc.). Proteins were detected by enhanced chemiluminescence (ECL; Thermoscientific, Rockford, Ill.).

N-cadherin = test: Western blot analysis of EMT mediators; assay type: cell-based; details: 48 hours of treatment
Method: as §2, §3

[4] = in vivo; cited from earlier work
[5] = test system: three ACC cell lines (BD140A, SW-13, NCI-H295R); test: Cellular proliferation assay (CyQuant), monolayer culture; assay type: cell-based
Method: 3×10^3 and 6×10^3 cells were plated in 96-well plates depending on the cell line. 100 μL of fresh culture medium containing the drug or vehicle was added. Cell count was determined using the CyQuant kit (Life Technologies, Grand Island, N.Y.), according to the manufacturer's instructions, and cell number was measured using a SpectraMax M5 microplate reader (ex485/em538; Molecular Devices, Sunnyvale, Calif.). Assays were performed in quadruplicate and the experiments were repeated three times.

[6] = test system: all three cell lines (ACC); test: Seahorse XF96 mitochondrial metabolism assay (OCR, ECAR); assay type: cell-based
Method: The Seahorse XF96 assay was performed according to the manufacturer's instructions (Seahorse Bioscience, Billerica, Mass.). Briefly, cells were plated in XF96 plates and media was replaced with unbuffered DMEM supplemented with 2 mmol of glutamine and 2.5 g/L of D-Glucose. After 1 hour in a 37° C. CO2-free incubator, the oxygen consumption rate (OCR) and extracellular acidification rate (ECAR) were measured before and after injection of the drug, the vehicle, or carbonyl cyanide 4-(trifluoromethoxy) phenylhydrazone (FCCP) using the Seahorse XF96 extracellular flux analyzer.

[7] = cited from earlier work
[8] = humans; read-out: known Cmax in humans; cited from earlier work
SW-13 MCAs = test: Three-dimensional multicellular aggregates (MCA); assay type: cell-based; details: SW-13, after three weeks of treatment
Method: (§4) NCI-H295R and SW-13 cells, which form multicellular aggregates (MCA) or spheroids, were plated in Ultra Low Cluster 24-well plates (Costar, Corning, N.Y.) at 1×10^5 cells/0.5 mL or 6×10^4 cells/0.5 mL depending on the cell line. Spheroids were allowed to develop for one or two weeks at 37° C. in 5% CO2, and media was exchanged twice a week. Spheroids were treated with niclosamide or the vehicle at varying concentrations, and imaged weekly.

NCI-H295R MCAs = test: Three-dimensional multicellular aggregates (MCA); assay type: cell-based; details: after four weeks of treatment
Method: as §4

NCI-H295R xenografts = test: ACC xenograft tumor growth in vivo; parameters: species or system Nu+/Nu+ mice; details: for inhibition in tumor growth: four weeks, vs vehicle control
Method: Mice were maintained according to National Institutes of Health (NIH) Animal Research Advisory Committee (ARAC) guidelines. 5×10^6 NCI-H295R cells were injected into the flank of Nu^+/Nu^+mice. Tumors were allowed to grow and mice were randomized into three treatment groups (8 mice per treatment group). M ice were treated with 100 mg/kg of niclosamide, 200 mg/kg of niclosamide, or the vehicle (PEG500) everyday by oral gavage. Tumor sizes were measured in two dimensions every week with calipers and recorded.

NCI-H295R and SW-13 = test: Transwell (Boyden chamber) migration assay; assay type: cell-based; details: transwell migration assays
Method: (§5) NCI-H295R and SW-13 cells were plated in six-well plates and treated with varying concentrations of niclosamide or the vehicle for 24 hours. Cells were trypsinized and plated in transwell chambers (BD Biosciences, San Jose, Calif.) at a density of 1×10^5 cells per 0.5 mL. The lower chamber was filled with DMEM supplemented with 10% FBS as a chemoattractant. Cells were allowed to migrate for 24 hours or 48 hours depending on the cell line, and were fixed and stained with Diff-Quik (Dade Behring, Newark, N.J.). Cells were imaged and counted in three random fields per well, and the experiments performed in triplicate. […] The cells were scratched using a sterile pipette tip and photographed at various time points.

ACC cells = test: TMRE staining, mitochondrial membrane potential; assay type: cell-based; details: after 3 hours and 6 hours of treatment
Method: Cells in 96-well plates were treated with the drug or vehicle. Cells were then stained with 200 nM of tetramethylrhodamine, ethyl ester (TMRE) for 20 minutes at 37° C. and were washed with PBS; fluorescence was measured using a SpectraMax M5e 96-well fluorescence microplate reader. FCCP was used as a positive control.

BD140A cells [9] = test: Wound-healing migration assay; assay type: cell-based; details: wound-heal assay, after 6 hours and 12 hours, vs vehicle control
Method: as §5

[10] = test system: adrenocortical carcinoma cell lines NCIH295R, BD140A and SW-13; test: qHTS of 4,292 compounds, activity in all three ACC cell lines; assay type: cell-based; details: lower IC50 and higher efficacy vs cisplatin, doxorubicin, etoposide, mitotane, streptozocin (FIG. 1)
Method: (§6) NCI-H295R and SW-13 cells were cultured in Dulbecco's modified Eagle medium (DMEM) supplemented with 2.5% NuSerum (BD Biosciences, San Jose, Calif.) and 0.1% ITS premix (BD Biosciences, San Jose, Calif.). BD140A cells, provided by Drs. Kimberly Bussey and Michael Demeure (Phoenix, Ariz.), were cultured in RPMI supplemented with 1% […] (Gibco, Grand Island, N.Y.), 1% penicillin-streptomycin (Gibco, Grand Island, N.Y.), and 10% fetal bovine serum (FBS; Invitrogen, Carlsbad, Calif.). The cell lines were authenticated using short tandem repeat profiling. Cells were maintained in a 5% CO2 atmosphere at 37° C.
The National Institutes of Health Chemical Genomic Center pharmaceutical library consists of 4,292 small molecules and compounds. Compounds were prepared as described previously (Mehta et al., Clin Cancer Res. 21:4123-32, 2015; hereby incorporated by reference in its entirety). The cell viability of treated cells was measured using the luciferase-coupled ATP quantitation assay, Cell Titer-Glo (Promega, Madison, Wis.). Doxorubicin hydrochloride and tetraoctylammonium bromide were used as positive controls. The final concentration of compounds in the assay ranged from 0.6 nM to 46 μM. […]

β-catenin = test: Western blot analysis of β-catenin; assay type: cell-based; details: all three cell lines
Method: as §2, §3

NCI-H295R [11] = test: qHTS cell viability (Cell Titer-Glo ATP quantitation); assay type: cell-based; details: Homo sapiens
Method: as §6
(§7) The National Institutes of Health Chemical Genomic Center pharmaceutical library consists of 4,292 small molecules and compounds. Compounds were prepared as described previously (Mehta et al., Clin Cancer Res. 21:4123-32, 2015; hereby incorporated by reference in its entirety). The cell viability of treated cells was measured using the luciferase-coupled ATP quantitation assay, Cell Titer-Glo (Promega, Madison, Wis.). Doxorubicin hydrochloride and tetraoctylammonium bromide were used as positive controls. The final concentration of compounds in the assay ranged from 0.6 nM to 46 μM. The titration-response data was plotted and modeled by a four-parameter logistic fit-to-yield half-maximal inhibitory concentration (IC50) and efficacy (maximal response), as compared to tetraoctylammonium bromide values.

SW-13 [12] = test: as above; assay type: cell-based; details: Homo sapiens, SW13; SW-13, qHTS
Method: as §6, §7

BD140A = test: as above; assay type: cell-based
Method: as §6, §7

Clc1ccc(C(c2ccccc2Cl)C(Cl)Cl)cc1 (stereo not shown) [mitotane]
reducing proliferation of H295R cells, single agent (NCI-H295R cells): some effect

O=C(Nc1ccc([N+](=O)[O-])cc1Cl)c1cc(Cl)ccc1O [niclosamide, 5-chloro-N-(2-chloro-4-nitrophenyl)-2-hydrobenzamide]
AKT pathway (AKT pathway): inhibited | caspase 3/7 activity (NCI-H295R [1]): increased | caspase 3/7 activity (SW-13 [2]): increased | caspase 3/7 activity (BD140A cells [3]): no increase | reducing proliferation of H295R cells, single agent (NCI-H295R cells): some effect | cell cycle progression (all three ACC cell lines): induced G1 cell cycle arrest | expression of vimentin (vimentin): reduced | expression of N-cadherin (N-cadherin): reduced | oral bioavailability [4]: low | cytotoxicity (killing pre-existing cancer cells) ([5]; at higher concentrations): cytotoxic | cellular proliferation ([5]; monolayer cell culture, three ACC cell lines): inhibited proliferation in a time- and dose-dependent manner | extracellular acidification rate (ECAR) [6]: increased | oxygen consumption rate (OCR) [6]: increased | water solubility [7]: low | Cmax [8]: 18.3 µM | effect on MCAs (SW-13 MCAs): growth inhibition and disintegration of the MCAs | effect on MCAs (NCI-H295R MCAs): growth inhibition and disintegration of the MCAs | tumor growth inhibition (NCI-H295R xenografts; 100 mg/kg and 200 mg/kg groups, 8 weeks, vs control group): more than 90% | tolerability / toxicity in mice (NCI-H295R xenografts; 100 mg/kg and 200 mg/kg oral): no observed toxicity or side effects | inhibition in tumor growth (NCI-H295R xenografts; 100 mg/kg everyday by oral gavage): 60% | inhibition in tumor growth (NCI-H295R xenografts; 200 mg/kg everyday by oral gavage): 80% | mouse body weight (NCI-H295R xenografts; treated groups vs vehicle): no significant weight differences | cellular migration (NCI-H295R and SW-13): Reduced | mitochondrial membrane potential (TMRE) (ACC cells): decrease | cell migration (BD140A cells [9]): decreased | activity compared to commonly used drugs for ACC [10]: better activity | expression of β-catenin (β-catenin): reduced | IC50 (NCI-H295R [11]): 530 nM | IC50 (SW-13 [12]): 150 nM | IC50 (BD140A): 120 nM
